Measured values as given in patent US9855280B2, “Nanoparticles containing azolium and N-heterocyclic carbene compounds and use thereof” (National Dong Hwa University, priority 2015, dated 2018).
Where two headings read alike, the source gives them in different places.

Assays:
[1] = tested on: CEM human acute lymphoblastic leukemia cell; assay: Cell proliferation (MTT) cytotoxicity, CEM; format: cell-based; conditions: 72 h
Text: (§1) Nine human cancerous cell lines, included human acute monocytic leukemia cell line (THP-1), human chronic myelogenous leukemia cell (K562), human acute lymphoblastic leukemia cell (CEM), human liver cancer cell line (HepG2), human colon cancer cell line (HT-29), human lung cancer cell line (H460), human breast cancer cell line (Hs578), human tongue squamous carcinoma (SAS), and human neuroblastoma cell line (SH—SY5Y) were purchased from the Bioresource Collection and Research Center (BCRC, Taiwan). A normal splenocyte is a primary cell acquired from the mouse spleen as a normal tissue cells to compare with nine cancer cell lines. They were cultured in either RPMI or DMEM (Gibco, CA, U.S.A) based media containing 2 mM L-glutamine, 1 mM sodium pyruvate, 50U/ml penicillin/50 μg/ml streptomycin (Gibco, CA, USA). and 10% fetal bovine serum ([…], HyClone Laboratories Inc., Logan, Utah, USA) at 37° C. with 5% CO2 supplied.
(§2) Cancer cells were seeded into 96-well plate at a starting density 8-10×10^3 cells/well. After overnight culture, [C16,TEGQ-Im]Cl, [C16,TEGQ-Imy)2Au]Cl, and AuNPs-B were added at various concentrations and duration times. […] The proliferation of the cells was measured at 72 h by the MTT method. The cell viability was examined using Ethidium bromide/Acride orange vital stain to exclude the dead cells and normalized the number of living cells to the total counted cells. […]

[2] = tested on: HT-29 human colon cancer cell line; assay: Cell proliferation (MTT) cytotoxicity, HT-29; format: cell-based; conditions: HT-29, 72 h
Text: as §1
(§3) Cancer cells were seeded into 96-well plate at a starting density 8-10×10^3 cells/well. After overnight culture, [C16,TEGQ-Im]Cl, [C16,TEGQ-Imy)2Au]Cl, and AuNPs-B were added at various concentrations and duration times. Cisplantin of same concentration was added in the same plate as positive control (Sigma-Aldrich, St. Louis, Mo., USA). The proliferation of the cells was measured at 72 h by the MTT method. The cell viability was examined using Ethidium bromide/Acride orange vital stain to exclude the dead cells and normalized the number of living cells to the total counted cells. […] All experiments were performed in triplicate to calculate the experimental averages and standard deviations. […]

[3] = tested on: H460 human lung cancer cell line; assay: Cell proliferation (MTT) cytotoxicity, H460; format: cell-based
Text: as §1, §3

[4] = tested on: splenocyte, primary cell acquired from the mouse spleen; assay: Cell proliferation (MTT) cytotoxicity, normal splenocyte; format: cell-based; conditions: 72 h
Text: as §1, §3

[5] = Solubility in water; format: physicochemical
[6] = tested on: nine cancer cell lines; assay: In vitro cytotoxicity across the panel of cancer cell lines; format: cell-based, human
Text: as §1, §2

[7] = tested on: Hs578T human breast cancer cell line; assay: Cell proliferation (MTT) cytotoxicity, Hs578T; format: cell-based; conditions: 72 h
Text: as §1, §3

[8] = tested on: THP-1 human acute monocytic leukemia cell line; assay: Cell proliferation (MTT) cytotoxicity, THP-1; format: cell-based; conditions: THP-1, 72 h
Text: as §1, §2

[9] = tested on: HepG2 human liver cancer cell line; assay: Cell proliferation (MTT) cytotoxicity, HepG2; format: cell-based; conditions: HepG2, 72 h
Text: as §1, §3

[10] = tested on: K562 human chronic myelogenous leukemia cell; assay: Cell proliferation (MTT) cytotoxicity, K562; format: cell-based; conditions: K562, 72 h
Text: as §1, §3

[11] = tested on: SH-SY5Y human neuroblastoma cell line; assay: Cell proliferation (MTT) cytotoxicity, SH-SY5Y; format: cell-based; conditions: 72 h
Text: as §1, §3

[12] = tested on: SAS human tongue squamous carcinoma; assay: Cell proliferation (MTT) cytotoxicity, SAS; format: cell-based; conditions: 72 h
Text: as §1, §3

Structure (SMILES)	IC50 [2]	IC50 ([3]; H460, 72 h)	IC50 [4]	IC50 [7]	IC50 [9]	IC50 [10]	IC50 [11]	IC50 [12]	also measured
CCCCCCCCCCCCCCCCn1cc[n+](CCOCCOCCOc2cccc3cccnc23)[c]1[Au-][c]1n(CCOCCOCCOc2cccc3cccnc23)cc[n+]1CCCCCCCCCCCCCCCC.[Cl-] [[(C16,TEGQ-Imy)2Au]Cl]	29.41 ± 16.89 µg/mL	6.64 ± 1.22 µg/mL	4.06 ± 1.66 µg/mL	0.66 ± 0.14 µg/mL	7.47 ± 1.53 µg/mL	2.71 ± 0.26 µg/mL	1.14 ± 0.31 µg/mL	0.74 ± 0.03 µg/mL	IC50 [1]: 4.11 ± 0.78 µg/mL; Solubility in water [5]: relatively poor solubility in water; IC50, range over cell lines ([6]; all of the eight cancer cell lines): 2.7 to 29.4 µg/mL; IC50 [8]: 3.37 ± 0.74 µg/mL
N.N.[Cl][Pt][Cl] [Cisplatin, reference compound]	2.45 µg/mL	1.23 ± 0.29 µg/mL	0.71 ± 0.05 µg/mL	1.73 µg/mL	1.67 ± 0.23 µg/mL	0.61 µg/mL	0.60 µg/mL	2.21 µg/mL	–
CCCCCCCCCCCCCCCCn1cc[n+](CCOCCOCCOc2cccc3cccnc23)c1.[Cl-] [[C16,TEGQ-Im]Cl, 3-hexadecyl-1-(2-(2-(2-(quinolin-8-yloxy)ethoxy)ethoxy)ethyl)-imidazolium chloride]	–	–	–	–	–	–	–	–	IC50 ([1]; Homo sapiens, read-out: IC50): 0.67 ± 0.16 µg/mL; IC50 ([2]; Homo sapiens, read-out: IC50): 0.88 ± 0.11 µg/mL; IC50 ([3]; Homo sapiens, NCI-H460, 72 h, read-out: IC50): 1.43 ± 0.3 µg/mL; IC50 ([4]; read-out: IC50): 3.18 ± 0.76 µg/mL; IC50 ([6]; Homo sapiens, six cancer cell lines: THP-1, K562, HT-29, Hs578T, SH-SY5Y, SAS, read-out: IC50 values, range over cell lines): 0.22 to 0.89 µg/mL; IC50 ([7]; Homo sapiens, Hs-578T, read-out: IC50): 0.39 ± 0.05 µg/mL; IC50 ([8]; Homo sapiens, read-out: IC50): 0.37 µg/mL; IC50 ([9]; Homo sapiens, read-out: IC50): 1.69 ± 0.14 µg/mL; IC50 ([10]; Homo sapiens, read-out: IC50): 0.22 ± 0.03 µg/mL; IC50 ([11]; Homo sapiens, read-out: IC50): 0.34 µg/mL; IC50 ([12]; Homo sapiens, read-out: IC50): 0.89 ± 0.56 µg/mL
